Data from ChEMBL document CHEMBL1201862, “PubChem BioAssay data set” (2004).
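Interpolation was linear, between the two tested concentrations surrounding the appropriate level; five concentrations were tested over 48 hours in 96-well plates. GI50 is the concentration that inhibits growth by half.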 Active and inactive are the calls of the source. Rule as the data show it: active = GI50 up to about 1.1 µM and inactive = higher.

Assays:
Experiment in all cases: growth of human tumour cells (NCI), 48 h
RPMI-8226 = test system: RPMI-8226
DMS-273 = test system: DMS-273
SK-MEL-5 = test system: SK-MEL-5
CCRF-CEM = test system: CCRF-CEM
NCI-H460 = test system: NCI-H460
HL-60 = test system: HL-60
A549 = test system: A549
UACC-257 = test system: UACC-257
786-0 = test system: 786-0
ACHN = test system: ACHN
NCI-H23 = test system: NCI-H23
COLO 205 = test system: COLO 205
Malme-3M = test system: Malme-3M
NCI-H522 = test system: NCI-H522
M19-MEL = test system: M19-MEL
OVCAR-4 = test system: OVCAR-4
SNB-75 = test system: SNB-75

Measured: GI50

O=C1NCCCC12CCCNC2=O
inactive: RPMI-8226 > 100 µM | DMS-273 > 100 µM | SK-MEL-5 > 100 µM | CCRF-CEM > 100 µM | NCI-H460 > 100 µM | HL-60 > 100 µM | A549 > 100 µM | UACC-257 > 100 µM | 786-0 > 100 µM | ACHN > 100 µM | NCI-H23 > 100 µM | COLO 205 > 100 µM | Malme-3M > 100 µM | NCI-H522 > 100 µM | M19-MEL > 100 µM

CCc1cccc(CC)c1NC1=CC(=O)C(=O)c2ccccc21
inactive: RPMI-8226 40.2 µM | DMS-273 19.2 µM | SK-MEL-5 10 µM | OVCAR-4 13.7 µM | CCRF-CEM > 100 µM | NCI-H460 19 µM | HL-60 > 100 µM | A549 18.6 µM | UACC-257 15 µM | 786-0 18.9 µM | ACHN 13.1 µM | SNB-75 22.8 µM | NCI-H23 1.49 µM | COLO 205 > 100 µM | Malme-3M 17.9 µM | NCI-H522 14.1 µM | M19-MEL 4.97 µM

CCOC(=O)C(C(=O)OCC)c1ccc([N+](=O)[O-])o1
inactive: RPMI-8226 6.87 µM | DMS-273 18 µM | SK-MEL-5 17.3 µM | OVCAR-4 17.3 µM | CCRF-CEM 2.53 µM | NCI-H460 20.3 µM | HL-60 2.65 µM | A549 21.5 µM | UACC-257 14.7 µM | 786-0 6.64 µM | ACHN 10.2 µM | SNB-75 20 µM | NCI-H23 17.6 µM | COLO 205 3.27 µM | Malme-3M 6.73 µM | NCI-H522 1.74 µM | M19-MEL 17.5 µM

CCOC(=O)Nc1ccc(S(=O)(=O)OC)cc1.CCOC(=O)Nc1ccc(S(=O)(=O)OC)cc1.Cc1cn(C2CC(O)C(CO)O2)c(=O)[nH]c1=O
inactive: RPMI-8226 36.5 µM | DMS-273 > 100 µM | SK-MEL-5 > 100 µM | OVCAR-4 86.3 µM | CCRF-CEM 87.1 µM | NCI-H460 > 100 µM | HL-60 91.8 µM | A549 > 100 µM | UACC-257 > 100 µM | 786-0 35.4 µM | ACHN > 100 µM | SNB-75 > 100 µM | NCI-H23 > 100 µM | COLO 205 > 100 µM | Malme-3M > 100 µM | M19-MEL 49.8 µM

C/C(=N\NC(=S)Nc1ccc(C(=O)O)cc1)c1ccccn1
inactive: RPMI-8226 29.8 µM | DMS-273 24 µM | SK-MEL-5 16.9 µM | OVCAR-4 15.1 µM | CCRF-CEM 17.4 µM | NCI-H460 21.6 µM | HL-60 20.7 µM | A549 39.1 µM | UACC-257 25.4 µM | 786-0 17.4 µM | ACHN 16.7 µM | SNB-75 20.5 µM | NCI-H23 36.9 µM | COLO 205 18.4 µM | Malme-3M 15.5 µM | M19-MEL 20.1 µM

CC(C)(C)c1cc(Cc2ccc(S(C)(=O)=O)cc2)c(O)c(C(C)(C)C)c1
inactive: RPMI-8226 10.8 µM | DMS-273 14.3 µM | SK-MEL-5 16.3 µM | OVCAR-4 14.4 µM | CCRF-CEM 12.3 µM | NCI-H460 16.8 µM | HL-60 16.5 µM | A549 11.7 µM | UACC-257 17 µM | 786-0 16.1 µM | ACHN 13.7 µM | SNB-75 14.8 µM | NCI-H23 16.8 µM | Malme-3M 18.1 µM | NCI-H522 12.1 µM | M19-MEL 17.1 µM

Cc1cccc(NC(=O)C(=O)C(C(=O)c2ccccc2F)C2OC(=O)c3ccccc32)c1Cl (configuration not stated)
inactive: RPMI-8226 26.9 µM | DMS-273 24.7 µM | SK-MEL-5 64 µM | OVCAR-4 43.9 µM | CCRF-CEM 23.3 µM | NCI-H460 33.7 µM | HL-60 20.1 µM | A549 36.4 µM | UACC-257 51.4 µM | ACHN 53.1 µM | SNB-75 20.5 µM | NCI-H23 24.2 µM | COLO 205 20 µM | NCI-H522 22.4 µM | M19-MEL 22.4 µM

CCOc1cccc2[s+]snc12
inactive: DMS-273 > 100 µM | SK-MEL-5 23.6 µM | OVCAR-4 58.5 µM | CCRF-CEM 62.8 µM | NCI-H460 > 100 µM | HL-60 30.2 µM | A549 > 100 µM | UACC-257 > 100 µM | 786-0 > 100 µM | ACHN > 100 µM | SNB-75 25.6 µM | NCI-H23 > 10 µM | COLO 205 > 100 µM | Malme-3M > 100 µM | NCI-H522 27.8 µM | M19-MEL 56 µM

c1ccc(C2N=C(c3ccccn3)C(c3ccccn3)=NC2c2ccccc2)cc1 (configuration not stated)
inactive: RPMI-8226 > 100 µM | DMS-273 > 100 µM | SK-MEL-5 > 100 µM | OVCAR-4 > 100 µM | CCRF-CEM > 100 µM | NCI-H460 > 100 µM | HL-60 > 100 µM | A549 > 100 µM | UACC-257 > 100 µM | 786-0 > 100 µM | ACHN > 100 µM | NCI-H23 > 100 µM | COLO 205 > 100 µM | Malme-3M > 100 µM | NCI-H522 > 100 µM | M19-MEL > 100 µM

COc1ccc(NC(=O)C(=O)Cc2ccc([N+](=O)[O-])c([N+](=O)[O-])c2CC(=O)C(=O)Nc2ccc(OC)cc2OC)c(OC)c1
inactive: RPMI-8226 > 100 µM | DMS-273 > 100 µM | OVCAR-4 > 100 µM | CCRF-CEM > 100 µM | NCI-H460 > 100 µM | HL-60 > 100 µM | A549 > 100 µM | UACC-257 > 100 µM | 786-0 > 100 µM | ACHN > 100 µM | SNB-75 96.2 µM | NCI-H23 > 100 µM | COLO 205 > 100 µM | Malme-3M > 100 µM | NCI-H522 58.6 µM | M19-MEL 95.9 µM

O/N=C/c1ncccc1C1OCCO1
inactive: DMS-273 > 100 µM | SK-MEL-5 > 100 µM | OVCAR-4 > 100 µM | CCRF-CEM > 100 µM | NCI-H460 > 100 µM | HL-60 > 100 µM | A549 > 100 µM | UACC-257 > 100 µM | 786-0 > 100 µM | ACHN > 100 µM | SNB-75 > 100 µM | NCI-H23 > 100 µM | COLO 205 > 100 µM | Malme-3M > 100 µM | NCI-H522 > 100 µM | M19-MEL > 100 µM

Cc1ccc2c(c1-c1ccccc1)C(=O)OC2
inactive: RPMI-8226 > 100 µM | DMS-273 > 100 µM | SK-MEL-5 > 100 µM | OVCAR-4 > 100 µM | CCRF-CEM > 100 µM | HL-60 > 100 µM | A549 > 100 µM | UACC-257 > 100 µM | 786-0 > 100 µM | ACHN > 100 µM | SNB-75 > 100 µM | NCI-H23 > 100 µM | COLO 205 > 100 µM | Malme-3M > 100 µM | NCI-H522 > 100 µM | M19-MEL > 100 µM
